Data: US5446035A, “20-methyl-substituted vitamin D derivatives” (Schering Aktiengesellschaft, priority 1991, dated 1995)

Key:
HL-60 cells = test: induction of HL-60 cell differentiation to macrophages (NBT reduction); format: cell-based, human; settings: 96 hours incubation, formazan at 650 nm
Description: It is known in the literature (Mangelsdorf, D. J. et al., J. Cell. Biol. 98: 391-398 (1984)) that the treatment of human leukemia cells (promyelocyte cell line HL-60, available, e.g., from the ATCC, Rockville, Md.) in vitro with calcitriol induces the differentiation of the cells to macrophages.
HL-60 cells are cultivated in tissue culture medium (RPMI - 10% fetal calf serum) at 37° C. in an atmosphere of 5% CO2 in air.
For substance testing, the cells are centrifuged and 2.8×10^5 cells/ml are suspended in phenol red-free tissue culture medium. The test substances are dissolved in ethanol and diluted with tissue culture medium without phenol red to achieve the desired concentration. The diluted test substances are mixed with the cell suspension in a ratio of 1:10 and 100 μl each of this cell suspension mixed with substance is pipetted in a depression of a 96-hole plate. As a control, a cell suspension is prepared similarly, but only with the solvent. […]
To dissolve the formed intracellular formazan crystals, 100 μl of potassium hydroxide (2 mol/l) and 100 μl of dimethylsulfoxide are pipetted into each depression and ultrasonically irradiated for 1 minute. The concentration of formazan is spectrophotometrically measured at 650 nm.
As a measurement for the differentiation induction of HL 60 cells to macrophages, the concentration of formed formazan is determined. […]

[1] = test system: human peripheral blood mononuclear cells; test: PHA-stimulated lymphocyte proliferation ([3H]-thymidine incorporation); format: cell-based; settings: PBMC, PHA 5 μg/well, 96 hours after stimulation, read-out: concentration inhibiting lymphocyte proliferation by 50%
Description: At the time of seeding, cells were treated with phytohemagglutinin (PHA) 5 μg/well. The test compound was added at the same time as PHA in various concentration. Lymphocyte proliferation was determined 96 hours after stimulation by incorporation of [^3 H]-thymidine. For that, [^3 H]-thymidine (0.2 μCi/well) was added for the last 6 hours of culture, then medium and cells were filtrated through a glass fiber filter. Radioactivity of the filters were determined in a β-counter.

[2] = test system: IL-2 secretion, human peripheral blood mononuclear cells; test: IL-2 secretion by PHA-stimulated lymphocytes (ELISA); format: cell-based; settings: compared with calcitriol; PHA 20 μg/well, 24 hours
Description: For determination of IL-2 secretion, human peripheral blood mononuclear cells were prepared as above, seeded at a density of 2×10^6 cells/well×200 μl into 24-well-plates and cultured in RPMI 1640 in the presence of 2% fetal calf serum. At the time of seeding, PHA (20 μg/well) and the test compound was added. 24 hours after stimulation, cell cultures were harvested, medium separated from cells by centrifugation, and IL-2 concentration in the medium determined by an ELISA based on a polyclonal antibody IL-2.

Row | SMILES | relative activity in inducing differentiation: ED50 test substance/ED50 calcitriol (HL-60 cells) | IC50 [1] | concentration range at which inhibition of IL-2 secretion starts [2]
1 | C=C1/C(=C\C=C2/CCC[C@]3(C)[C@@H](C(C)(C)/C=C/C=C/C(C)(C)O)CC[C@@H]23)C[C@@H](O)C[C@@H]1O [1(S),3(R)-Dihydroxy-20-(5-hydroxy-5-methyl-hexa-1E,3E-dien-1-yl)-20-methyl-9,10-secopregna-5Z,7E,10(19)-triene] | ~0.001 |  | 
2 | C=C1/C(=C\C=C2/CCC[C@]3(C)[C@@H]([C@H](C)CCCC(C)(C)O)CC[C@@H]23)C[C@@H](O)C[C@@H]1O [1,25-dihydroxy-vitamin D3, 1α,25-dihydroxycholecalciferol, reference compound] |  | 0.44 nM | 
3 | C=C1/C(=C\C=C2/CCC[C@]3(C)[C@@H](C(C)(C)CC=CC(C)(C)O)CC[C@@H]23)C[C@@H](O)C[C@@H]1O [ZK 157202, 1α,25-dihydroxy-20-methyl-23,24-dehydrovitamin D3] |  | 0.013 nM | about the same as for calcitriol
